Test results published in the kinase profiling compilation of Christmann-Franck et al. (2016).
“And” between values parts separate entries of the source, which are not always exact repeats. Equal values may be shown once.

How the values were obtained:
Test in all cases: Caliper, Mobility shift assay off-chip
MAPK3 (human) = MAPK3 (human) (UniProt P27361)
HCK (human) = HCK (human) (UniProt P08631)
CAMK2B (human) = CAMK2B (human) (UniProt Q13554)
CHEK1 (human) = CHEK1 (human) (UniProt O14757)
FYN (human) = FYN (human) (UniProt P06241)
RPS6KA3 KD1 KD2 (human) = RPS6KA3 KD1 KD2 (human) (UniProt P51812)
[1] = biological target: PRKAA2 PRKAB1 PRKAG1 (human) (UniProt Q9Y478+P54646+P54619)
FGFR1 (human) = FGFR1 (human) (UniProt P11362)
[2] = tested on: KIT (human), P10721 [T670I]
FGFR2 (human) = FGFR2 (human) (UniProt P21802)
[3] = tested on: ABL1 (human), P00519 [H396P]
PRKG1 (human) = PRKG1 (human) (UniProt Q13976)
SGK1 (human) = SGK1 (human) (UniProt O00141)
PRKD1 (human) = PRKD1 (human) (UniProt Q15139)
NTRK3 (human) = NTRK3 (human) (UniProt Q16288)
Chain of NTRK3 (human) (Q16288 whole entry, looked up): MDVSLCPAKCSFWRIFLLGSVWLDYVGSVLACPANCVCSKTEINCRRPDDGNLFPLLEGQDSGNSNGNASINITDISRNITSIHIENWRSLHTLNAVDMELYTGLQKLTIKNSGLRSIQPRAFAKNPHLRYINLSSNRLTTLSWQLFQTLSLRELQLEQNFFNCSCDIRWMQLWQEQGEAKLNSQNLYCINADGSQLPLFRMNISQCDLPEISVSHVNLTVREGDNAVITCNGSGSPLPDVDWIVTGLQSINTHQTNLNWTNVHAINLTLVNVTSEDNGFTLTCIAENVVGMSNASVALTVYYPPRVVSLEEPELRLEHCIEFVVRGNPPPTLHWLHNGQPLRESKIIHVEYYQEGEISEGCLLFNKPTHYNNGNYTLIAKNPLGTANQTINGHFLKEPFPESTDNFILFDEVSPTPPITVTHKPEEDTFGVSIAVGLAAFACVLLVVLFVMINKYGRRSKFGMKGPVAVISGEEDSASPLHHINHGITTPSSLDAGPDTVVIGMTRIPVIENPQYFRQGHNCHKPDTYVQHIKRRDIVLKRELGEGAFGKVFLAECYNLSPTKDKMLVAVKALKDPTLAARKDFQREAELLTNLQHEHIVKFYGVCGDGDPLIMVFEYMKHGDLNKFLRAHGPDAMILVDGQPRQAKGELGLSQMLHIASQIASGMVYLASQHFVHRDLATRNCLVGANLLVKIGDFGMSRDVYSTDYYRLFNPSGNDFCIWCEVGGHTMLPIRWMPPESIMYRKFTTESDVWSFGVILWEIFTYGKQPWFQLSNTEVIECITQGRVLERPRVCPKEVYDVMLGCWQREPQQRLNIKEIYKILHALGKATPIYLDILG

GSK3B (human) = GSK3B (human) (UniProt P49841)
Chain of GSK3B (human) (P49841 whole entry, looked up): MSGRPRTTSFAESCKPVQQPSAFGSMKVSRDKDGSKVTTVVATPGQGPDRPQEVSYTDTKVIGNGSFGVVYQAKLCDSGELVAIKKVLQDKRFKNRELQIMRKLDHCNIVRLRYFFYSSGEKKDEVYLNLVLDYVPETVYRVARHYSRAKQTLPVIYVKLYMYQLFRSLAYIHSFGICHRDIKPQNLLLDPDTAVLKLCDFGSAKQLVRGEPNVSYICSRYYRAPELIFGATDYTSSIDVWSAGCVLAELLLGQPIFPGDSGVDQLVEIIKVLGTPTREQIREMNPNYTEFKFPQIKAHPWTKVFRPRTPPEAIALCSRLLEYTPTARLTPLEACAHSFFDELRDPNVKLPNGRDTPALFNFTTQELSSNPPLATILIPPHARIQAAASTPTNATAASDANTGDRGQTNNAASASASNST

JAK2 JH1 JH2 (human) = JAK2 JH1 JH2 (human) (UniProt O60674)
Chain of JAK2 JH1 JH2 (human) (O60674 whole entry, looked up): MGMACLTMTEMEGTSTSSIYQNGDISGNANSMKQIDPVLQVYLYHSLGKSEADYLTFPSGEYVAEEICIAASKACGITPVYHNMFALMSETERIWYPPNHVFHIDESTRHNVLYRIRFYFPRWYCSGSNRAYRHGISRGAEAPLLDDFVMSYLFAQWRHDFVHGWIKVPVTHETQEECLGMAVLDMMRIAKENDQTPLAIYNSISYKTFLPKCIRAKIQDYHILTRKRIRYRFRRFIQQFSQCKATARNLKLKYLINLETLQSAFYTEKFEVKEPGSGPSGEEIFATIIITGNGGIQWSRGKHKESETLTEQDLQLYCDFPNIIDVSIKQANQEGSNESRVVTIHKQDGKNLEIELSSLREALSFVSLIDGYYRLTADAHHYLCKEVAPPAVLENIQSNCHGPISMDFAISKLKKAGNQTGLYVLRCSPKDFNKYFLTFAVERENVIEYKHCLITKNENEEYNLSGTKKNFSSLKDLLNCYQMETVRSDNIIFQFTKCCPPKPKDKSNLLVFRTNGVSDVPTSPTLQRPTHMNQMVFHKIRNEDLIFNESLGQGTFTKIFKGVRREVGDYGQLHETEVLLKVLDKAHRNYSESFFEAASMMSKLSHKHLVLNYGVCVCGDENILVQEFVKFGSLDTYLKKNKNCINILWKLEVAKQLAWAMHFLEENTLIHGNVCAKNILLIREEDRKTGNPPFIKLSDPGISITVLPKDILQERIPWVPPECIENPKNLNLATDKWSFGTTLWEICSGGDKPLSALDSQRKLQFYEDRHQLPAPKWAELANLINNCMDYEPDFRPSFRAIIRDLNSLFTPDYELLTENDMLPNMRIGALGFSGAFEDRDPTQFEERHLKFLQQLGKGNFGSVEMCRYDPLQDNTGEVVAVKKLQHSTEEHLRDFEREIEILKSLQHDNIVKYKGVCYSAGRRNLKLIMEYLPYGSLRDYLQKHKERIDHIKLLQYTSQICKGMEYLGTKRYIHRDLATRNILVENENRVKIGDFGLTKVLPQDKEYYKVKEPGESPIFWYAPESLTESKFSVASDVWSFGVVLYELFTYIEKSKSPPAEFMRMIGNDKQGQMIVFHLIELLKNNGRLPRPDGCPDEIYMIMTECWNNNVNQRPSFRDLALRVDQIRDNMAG

ROCK2 (human) = ROCK2 (human) (UniProt O75116)
PHKG1 (human) = PHKG1 (human) (UniProt Q16816)
TSSK1B (human) = TSSK1B (human) (UniProt Q9BXA7)
Chain of TSSK1B (human) (Q9BXA7 whole entry, looked up): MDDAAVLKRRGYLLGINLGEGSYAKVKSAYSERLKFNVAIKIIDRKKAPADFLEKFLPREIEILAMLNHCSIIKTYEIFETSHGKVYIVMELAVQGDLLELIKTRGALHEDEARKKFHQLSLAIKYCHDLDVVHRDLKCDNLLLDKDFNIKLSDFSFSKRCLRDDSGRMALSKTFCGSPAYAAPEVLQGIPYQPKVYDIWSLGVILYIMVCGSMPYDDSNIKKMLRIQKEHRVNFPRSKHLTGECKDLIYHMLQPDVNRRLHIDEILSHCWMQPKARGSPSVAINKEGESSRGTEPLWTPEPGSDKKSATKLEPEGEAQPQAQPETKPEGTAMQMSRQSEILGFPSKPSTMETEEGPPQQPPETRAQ

[4] = tested on: RET (human), P07949 [Y791F]
LCK (human) = LCK (human) (UniProt P06239)
RAF1 (human) = RAF1 (human) (UniProt P04049)
DYRK1A (human) = DYRK1A (human) (UniProt Q13627)
PRKCG (human) = PRKCG (human) (UniProt P05129)
CHEK2 (human) = CHEK2 (human) (UniProt O96017)
INSR (human) = INSR (human) (UniProt P06213)
AURKA (human) = AURKA (human) (UniProt O14965)
Chain of AURKA (human) (O14965 whole entry, looked up): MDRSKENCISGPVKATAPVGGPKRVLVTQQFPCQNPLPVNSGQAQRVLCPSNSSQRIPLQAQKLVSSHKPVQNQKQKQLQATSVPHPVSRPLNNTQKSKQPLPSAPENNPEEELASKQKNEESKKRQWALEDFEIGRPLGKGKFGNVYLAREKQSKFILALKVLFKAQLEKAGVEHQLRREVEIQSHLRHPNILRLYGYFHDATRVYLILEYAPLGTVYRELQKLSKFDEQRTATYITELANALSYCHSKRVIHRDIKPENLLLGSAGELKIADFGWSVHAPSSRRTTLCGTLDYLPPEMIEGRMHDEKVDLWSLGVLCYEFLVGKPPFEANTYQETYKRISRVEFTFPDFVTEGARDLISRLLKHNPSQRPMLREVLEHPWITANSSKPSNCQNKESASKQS

PRKD2 (human) = PRKD2 (human) (UniProt Q9BZL6)
MAPK1 (human) = MAPK1 (human) (UniProt P28482)
FGFR3 (human) = FGFR3 (human) (UniProt P22607)
Chain of FGFR3 (human) (P22607 whole entry, looked up): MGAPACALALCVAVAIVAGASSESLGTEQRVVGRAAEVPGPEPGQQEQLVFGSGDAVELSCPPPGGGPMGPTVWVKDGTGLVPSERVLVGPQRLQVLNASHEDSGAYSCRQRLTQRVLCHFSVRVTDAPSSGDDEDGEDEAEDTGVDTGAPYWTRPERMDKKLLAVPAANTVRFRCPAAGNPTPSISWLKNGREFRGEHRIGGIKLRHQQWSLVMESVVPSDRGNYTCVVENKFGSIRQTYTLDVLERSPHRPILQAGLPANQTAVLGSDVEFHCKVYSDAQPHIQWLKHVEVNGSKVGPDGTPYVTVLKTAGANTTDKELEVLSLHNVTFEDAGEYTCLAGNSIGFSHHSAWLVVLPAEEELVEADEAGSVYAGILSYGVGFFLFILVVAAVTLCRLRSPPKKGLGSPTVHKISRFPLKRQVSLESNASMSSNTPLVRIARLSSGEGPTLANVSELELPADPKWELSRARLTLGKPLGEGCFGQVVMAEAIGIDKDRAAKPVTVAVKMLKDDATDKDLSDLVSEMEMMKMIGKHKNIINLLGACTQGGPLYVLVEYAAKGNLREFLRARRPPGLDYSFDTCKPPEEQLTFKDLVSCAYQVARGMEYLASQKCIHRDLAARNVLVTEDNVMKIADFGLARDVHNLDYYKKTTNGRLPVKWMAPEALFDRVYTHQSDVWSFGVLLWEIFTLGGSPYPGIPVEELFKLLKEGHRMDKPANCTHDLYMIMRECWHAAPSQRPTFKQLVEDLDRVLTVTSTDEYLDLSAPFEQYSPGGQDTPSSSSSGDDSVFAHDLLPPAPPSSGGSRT

CAMK4 (human) = CAMK4 (human) (UniProt Q16566)
PHKG2 (human) = PHKG2 (human) (UniProt P15735)
Chain of PHKG2 (human) (P15735 whole entry, looked up): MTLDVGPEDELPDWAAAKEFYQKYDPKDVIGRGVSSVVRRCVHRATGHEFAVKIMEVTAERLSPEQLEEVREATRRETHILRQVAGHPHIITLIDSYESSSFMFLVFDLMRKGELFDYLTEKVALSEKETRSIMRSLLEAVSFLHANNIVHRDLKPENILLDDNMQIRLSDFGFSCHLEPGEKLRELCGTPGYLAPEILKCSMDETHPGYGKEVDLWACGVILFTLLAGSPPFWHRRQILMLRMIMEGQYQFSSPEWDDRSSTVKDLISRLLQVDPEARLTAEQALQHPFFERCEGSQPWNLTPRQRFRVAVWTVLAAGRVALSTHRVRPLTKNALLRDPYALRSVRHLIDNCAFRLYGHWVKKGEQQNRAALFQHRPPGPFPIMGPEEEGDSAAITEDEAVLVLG

Chain of CAMK2B (human) (Q13554 whole entry, looked up): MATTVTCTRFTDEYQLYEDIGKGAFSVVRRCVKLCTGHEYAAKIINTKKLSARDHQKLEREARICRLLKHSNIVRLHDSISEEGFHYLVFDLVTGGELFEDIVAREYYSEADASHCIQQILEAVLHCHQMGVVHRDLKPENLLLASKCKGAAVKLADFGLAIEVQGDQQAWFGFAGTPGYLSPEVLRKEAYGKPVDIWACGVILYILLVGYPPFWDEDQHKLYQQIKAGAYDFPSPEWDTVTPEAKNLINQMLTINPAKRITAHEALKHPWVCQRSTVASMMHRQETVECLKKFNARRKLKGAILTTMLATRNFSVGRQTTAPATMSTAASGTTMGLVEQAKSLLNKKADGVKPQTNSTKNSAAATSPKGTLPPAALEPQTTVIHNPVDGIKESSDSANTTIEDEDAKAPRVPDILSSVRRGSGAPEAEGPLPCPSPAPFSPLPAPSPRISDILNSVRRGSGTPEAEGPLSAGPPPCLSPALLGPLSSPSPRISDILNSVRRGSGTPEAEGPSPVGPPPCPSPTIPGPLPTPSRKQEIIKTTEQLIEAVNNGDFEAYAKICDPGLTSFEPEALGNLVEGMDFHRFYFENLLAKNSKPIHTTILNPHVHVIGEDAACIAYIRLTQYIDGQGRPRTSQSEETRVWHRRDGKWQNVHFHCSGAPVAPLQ

## O=C(CCc1ccc2ccc3ncc(C4CCNCC4)cc3c(=O)c2c1)NCc1ccccn1
MAPK3 (human); compound 0.1 µM
  inhibition: 1.7%
MAPK3 (human); compound 1.0 µM
  inhibition: -0.5%
HCK (human); compound 0.1 µM
  inhibition: -1.8%
HCK (human); compound 1.0 µM
  inhibition: 3.1%
CAMK2B (human); compound 0.1 µM
  inhibition: -1.6%
CAMK2B (human); compound 1.0 µM
  inhibition: 0.8%
CHEK1 (human); compound 0.1 µM
  inhibition: -0.6%
CHEK1 (human); compound 1.0 µM
  inhibition: 2.9%
FYN (human); compound 0.1 µM
  inhibition: -4.2%
FYN (human); compound 1.0 µM
  inhibition: 2.7%
RPS6KA3 KD1 KD2 (human); compound 0.1 µM
  inhibition: 0.7%
RPS6KA3 KD1 KD2 (human); compound 1.0 µM
  inhibition: 62.5%
[1]; compound 0.1 µM
  inhibition: 5.1%
[1]; compound 1.0 µM
  inhibition: -1.5%
FGFR1 (human); compound 0.1 µM
  inhibition: 1.5%
FGFR1 (human); compound 1.0 µM
  inhibition: -7.9%
[2]; compound 0.1 µM
  inhibition: -3.3%
[2]; compound 1.0 µM
  inhibition: -4.9%
FGFR2 (human); compound 0.1 µM
  inhibition: 1.4%
FGFR2 (human); compound 1.0 µM
  inhibition: 7.8%
[3]; compound 0.1 µM
  inhibition: 1.4%
[3]; compound 1.0 µM
  inhibition: 1.1%
PRKG1 (human); compound 0.1 µM
  inhibition: -5% and 4.5%
PRKG1 (human); compound 1.0 µM
  inhibition: -1.6% and 0.1%
SGK1 (human); compound 0.1 µM
  inhibition: -2.2%
SGK1 (human); compound 1.0 µM
  inhibition: -6%
PRKD1 (human); compound 0.1 µM
  inhibition: 7%
PRKD1 (human); compound 1.0 µM
  inhibition: 11%
NTRK3 (human); compound 0.1 µM
  inhibition: 6%
NTRK3 (human); compound 1.0 µM
  inhibition: 10.4%
GSK3B (human); compound 0.1 µM
  inhibition: -0.6%
GSK3B (human); compound 1.0 µM
  inhibition: -3.3%
JAK2 JH1 JH2 (human); compound 0.1 µM
  inhibition: -2.8%
JAK2 JH1 JH2 (human); compound 1.0 µM
  inhibition: 5.9%
ROCK2 (human); compound 0.1 µM
  inhibition: -2.6%
ROCK2 (human); compound 1.0 µM
  inhibition: 4.2%
PHKG1 (human); compound 0.1 µM
  inhibition: 7.9%
PHKG1 (human); compound 1.0 µM
  inhibition: 1.2%
TSSK1B (human); compound 0.1 µM
  inhibition: 5.4%
TSSK1B (human); compound 1.0 µM
  inhibition: -1.6%
[4]; compound 0.1 µM
  inhibition: 1.1%
[4]; compound 1.0 µM
  inhibition: 2.7%
LCK (human); compound 0.1 µM
  inhibition: -3.4%
LCK (human); compound 1.0 µM
  inhibition: -2.9%
RAF1 (human); compound 0.1 µM
  inhibition: 3.2%
RAF1 (human); compound 1.0 µM
  inhibition: -9.1%
DYRK1A (human); compound 0.1 µM
  inhibition: 5.6%
DYRK1A (human); compound 1.0 µM
  inhibition: -6.7%
PRKCG (human); compound 0.1 µM
  inhibition: 10.9%
PRKCG (human); compound 1.0 µM
  inhibition: -15%
CHEK2 (human); compound 0.1 µM
  inhibition: 4.2%
CHEK2 (human); compound 1.0 µM
  inhibition: 1.2%
INSR (human); compound 0.1 µM
  inhibition: 5.1%
INSR (human); compound 1.0 µM
  inhibition: 3.5%
AURKA (human); compound 0.1 µM
  inhibition: 3.7%
AURKA (human); compound 1.0 µM
  inhibition: 22.4%
PRKD2 (human); compound 0.1 µM
  inhibition: 7.5%
PRKD2 (human); compound 1.0 µM
  inhibition: 0%
MAPK1 (human); compound 0.1 µM
  inhibition: -1.2%
MAPK1 (human); compound 1.0 µM
  inhibition: 3.7%
FGFR3 (human); compound 0.1 µM
  inhibition: 0.5%
FGFR3 (human); compound 1.0 µM
  inhibition: 4.9%
CAMK4 (human); compound 0.1 µM
  inhibition: -1.7%
CAMK4 (human); compound 1.0 µM
  inhibition: -3.4%
PHKG2 (human); compound 0.1 µM
  inhibition: 1%
PHKG2 (human); compound 1.0 µM
  inhibition: -4.4%

## Cn1cc(-c2cnc3ccc4ccc(CS(=O)(=O)NC5CCCCC5)cc4c(=O)c3c2)cn1
HCK (human); compound 0.01 µM
  inhibition: 3.5%
HCK (human); compound 0.1 µM
  inhibition: 7.6%
CAMK2B (human); compound 0.01 µM
  inhibition: 4.4%
CAMK2B (human); compound 0.1 µM
  inhibition: -5.2%
CHEK1 (human); compound 0.01 µM
  inhibition: 4.3%
CHEK1 (human); compound 0.1 µM
  inhibition: 1.3%
FYN (human); compound 0.01 µM
  inhibition: -0.7%
FYN (human); compound 0.1 µM
  inhibition: -3%
RPS6KA3 KD1 KD2 (human); compound 0.01 µM
  inhibition: -3.6%
RPS6KA3 KD1 KD2 (human); compound 0.1 µM
  inhibition: -3.8%
[1]; compound 0.01 µM
  inhibition: 2.9%
[1]; compound 0.1 µM
  inhibition: -0.1%
FGFR1 (human); compound 0.01 µM
  inhibition: 6.8%
FGFR1 (human); compound 0.1 µM
  inhibition: 2.8%
[2]; compound 0.01 µM
  inhibition: 1.3%
[2]; compound 0.1 µM
  inhibition: -4.9%
FGFR2 (human); compound 0.01 µM
  inhibition: 0.5%
FGFR2 (human); compound 0.1 µM
  inhibition: 16.5%
[3]; compound 0.01 µM
  inhibition: 2.2%
[3]; compound 0.1 µM
  inhibition: 0.5%
PRKG1 (human); compound 0.01 µM
  inhibition: 3.2% and -1.8%
PRKG1 (human); compound 0.1 µM
  inhibition: 9.2% and -4.9%
SGK1 (human); compound 0.01 µM
  inhibition: 2.1%
SGK1 (human); compound 0.1 µM
  inhibition: 9.1%
PRKD1 (human); compound 0.01 µM
  inhibition: -2.4%
PRKD1 (human); compound 0.1 µM
  inhibition: 11.3%
NTRK3 (human); compound 0.01 µM
  inhibition: 8.4%
NTRK3 (human); compound 0.1 µM
  inhibition: -0.4%
GSK3B (human); compound 0.01 µM
  inhibition: 4.9%
GSK3B (human); compound 0.1 µM
  inhibition: 1.3%
JAK2 JH1 JH2 (human); compound 0.01 µM
  inhibition: 8.9%
JAK2 JH1 JH2 (human); compound 0.1 µM
  inhibition: 11.9%
ROCK2 (human); compound 0.01 µM
  inhibition: 6.2%
ROCK2 (human); compound 0.1 µM
  inhibition: 21.2%
PHKG1 (human); compound 0.01 µM
  inhibition: 6.4%
PHKG1 (human); compound 0.1 µM
  inhibition: 14.9%
TSSK1B (human); compound 0.01 µM
  inhibition: -3.1%
TSSK1B (human); compound 0.1 µM
  inhibition: 1.9%
[4]; compound 0.01 µM
  inhibition: 14.9%
[4]; compound 0.1 µM
  inhibition: 1%
LCK (human); compound 0.01 µM
  inhibition: 8.2%
LCK (human); compound 0.1 µM
  inhibition: 7.3%
RAF1 (human); compound 0.01 µM
  inhibition: 2.2%
RAF1 (human); compound 0.1 µM
  inhibition: 4.5%
DYRK1A (human); compound 0.01 µM
  inhibition: -1%
DYRK1A (human); compound 0.1 µM
  inhibition: 6.4%
PRKCG (human); compound 0.01 µM
  inhibition: 2.4%
PRKCG (human); compound 0.1 µM
  inhibition: 2.1%
CHEK2 (human); compound 0.01 µM
  inhibition: -2.6%
CHEK2 (human); compound 0.1 µM
  inhibition: -7.4%
INSR (human); compound 0.01 µM
  inhibition: 3.1%
INSR (human); compound 0.1 µM
  inhibition: 3.1%
AURKA (human); compound 0.01 µM
  inhibition: 5.8%
AURKA (human); compound 0.1 µM
  inhibition: 6.9%
PRKD2 (human); compound 0.01 µM
  inhibition: 1.6%
PRKD2 (human); compound 0.1 µM
  inhibition: -3.6%
MAPK1 (human); compound 0.01 µM
  inhibition: -10.5%
MAPK1 (human); compound 0.1 µM
  inhibition: -4.8%
FGFR3 (human); compound 0.01 µM
  inhibition: -4%
FGFR3 (human); compound 0.1 µM
  inhibition: 7.8%
CAMK4 (human); compound 0.01 µM
  inhibition: 2.1%
CAMK4 (human); compound 0.1 µM
  inhibition: 2.3%
PHKG2 (human); compound 0.01 µM
  inhibition: 3.4%
PHKG2 (human); compound 0.1 µM
  inhibition: 13.3%
